Assay results taken from US20150259344A1, “IMIDAZOLE DERIVATIVE” (DAINIPPON SUMITOMO PHARMA CO., LTD., priority 2012, published 2015).

molecular target: T1, human α7 nAChR (Homo sapiens, UniProt P36544); experiment: Evaluation of PAM activity with human α7 nACh receptor stably expressing cells (aequorin luminescence, FDSS7000); format: cell-based; conditions: 1 μM test compound (values marked *, footnote of Table 25); ACh at EC20; ratio of RLU (Max-Min) to control wells; read-out: α7PAM (%) @1 μM
T1 construct: expressed in transfected cells
T1 sequence (P36544 23-502): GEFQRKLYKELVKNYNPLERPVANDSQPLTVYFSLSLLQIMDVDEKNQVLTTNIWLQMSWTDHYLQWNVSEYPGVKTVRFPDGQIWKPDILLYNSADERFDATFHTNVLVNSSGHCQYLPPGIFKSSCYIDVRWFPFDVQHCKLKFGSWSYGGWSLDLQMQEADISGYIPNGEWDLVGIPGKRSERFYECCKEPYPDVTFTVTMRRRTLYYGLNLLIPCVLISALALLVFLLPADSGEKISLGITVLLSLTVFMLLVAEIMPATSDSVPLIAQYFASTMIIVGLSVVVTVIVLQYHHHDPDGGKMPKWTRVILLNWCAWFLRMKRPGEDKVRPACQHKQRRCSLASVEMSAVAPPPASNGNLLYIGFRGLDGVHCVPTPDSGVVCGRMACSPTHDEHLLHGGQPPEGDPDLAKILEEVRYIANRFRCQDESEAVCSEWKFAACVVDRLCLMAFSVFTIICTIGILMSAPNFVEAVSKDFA
Procedure, shortened: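 Human α7 nAChR stable cells loaded with 4 μM Viviren (final) for 4 h at room temperature in the dark. Compounds in Hanks/20 mM HEPES/0.2% BSA were added and luminescence recorded on FDSS7000. PAM activity = RLU (Max-Min) ratio of test wells to control wells.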

Row | SMILES | activity at 1 µM [%]
1 | O=C(NCC1CCCCC1)N1CCC(n2cnc(-c3c(F)cccc3F)c2)CC1 [Example 11] | 116
2 | COc1cc(-c2cn([C@H]3CC[C@@H](NC(=O)C(C)(C)F)CC3)cn2)ccc1Cl [Example 309] | 181
3 | O=C(C1CCC(F)(F)CC1)N1[C@@H]2CC[C@H]1C[C@@H](n1cnc(-c3cccc(F)c3F)c1)C2 [Example 429] | 111
4 | CC(C)(C)C(=O)N[C@H]1CC[C@@H](n2cnc(-c3ccc(C(F)(F)F)cc3)c2)CC1 [Example 161] | 233
5 | COc1cc(-c2ncn([C@H]3CC[C@@H](NC(=O)C4CCC4)CC3)c2Cl)c(Cl)cc1F [Example 192] | 274
6 | CC(C)(C)C(=O)N[C@H]1CC[C@@H](n2cnc(-c3ccc(C(F)(F)F)cc3)c2C#N)CC1 [Example 199] | 230
7 | O=C(N[C@H]1CC[C@@H](n2cnc(-c3ccc(F)cc3)c2Cl)CC1)C1CCCC1 [Example 182] | 682
8 | O=C(NC1CCC1)N1CCC(n2cnc(-c3ccccc3)c2Cl)CC1 [Example 79] | 112
9 | CC(C)(F)C(=O)N[C@H]1CC[C@@H](n2cnc(-c3ccccc3OC(F)(F)F)c2Cl)CC1 [Example 331] | 467
10 | O=C(NC1CCCCC1)N1[C@@H]2CC[C@H]1C[C@@H](n1cnc(-c3ccc(F)cc3F)c1)C2 [Example 385] | 218
11 | O=C(NC1CCOCC1)[C@H]1CC[C@@H](n2cnc(-c3cccc(F)c3)c2)CC1 [Example 355] | 118
12 | CC(C)(F)C(=O)N[C@H]1CC[C@@H](n2cnc(-c3cc(OC(F)(F)F)ccc3F)c2Cl)CC1 [Example 328] | 859
13 | O=C(NC1CCCCC1)N1[C@@H]2CC[C@H]1C[C@@H](n1cnc(-c3cc(F)ccc3F)c1)C2 [Example 389] | 163
14 | O=C(N[C@H]1CC[C@@H](n2cnc(-c3ccc(C(F)(F)F)cc3)c2)CC1)C1CCC(F)(F)CC1 [Example 162] | 323

same assay, conditions: 10 μM test compound; ACh at EC20; ratio of RLU (Max-Min) to control wells; read-out: α7PAM (%) @10 μM

Row | SMILES | activity at 10 µM [%]
15 | CC(C)(F)C(=O)N[C@H]1CC[C@@H](n2cnc(-c3cccc(C(F)(F)F)c3)c2Cl)CC1 [Example 193] | 187
16 | Cc1ccc(-c2cn(C3CCN(C(=O)NC4CCC(F)(F)CC4)CC3)cn2)s1 [Example 126] | 780
17 | CC(C)(F)C(=O)N[C@H]1CC[C@@H](n2cnc(-c3ccc(Cl)cc3)c2C#N)CC1 [Example 333] | 233
18 | O=C(NC1COC1)[C@H]1CC[C@@H](n2cnc(-c3ccc(F)cc3)c2Cl)CC1 [Example 364] | 537
19 | O=C(NC1CCCCC1)N1CCC(n2cnc(-c3ccccn3)c2Cl)CC1 [Example 134] | 171
20 | CC(C)(F)C(=O)N[C@H]1CC[C@@H](n2cnc(-c3c(F)cc(F)cc3F)c2)CC1 [Example 314] | 591
21 | O=C(NC1CCC(F)(F)CC1)N1CCC(n2cnc(-c3ccc(F)c(F)c3)c2)CC1 [Example 28] | 798
22 | Cc1c(-c2ccc(F)cc2)ncn1C1CCN(C(=O)C2CCC(F)(F)CC2)CC1 [Example 275] | 912
23 | N#Cc1c(-c2ccc(F)cc2)ncn1[C@@H]1C[C@H]2CC[C@@H](C1)N2C(=O)C1CCC(F)(F)CC1 [Example 461] | 162
24 | CC(C)(F)C(=O)N[C@H]1CC[C@@H](n2cnc(-c3ccc(Cl)cc3F)c2)CC1 [Example 283, N-{cis-4-[4-(4-chloro-2-fluorophenyl)-1H-imidazol-1-yl]cyclohexyl}-2-fluoro-2-methylpropanamide] | 390
25 | O=C(N[C@H]1CC[C@@H](n2cnc(-c3ccc(C(F)(F)F)cc3)c2Cl)CC1)C1CCC1 [Example 196] | 498
26 | O=C(C1CCC(F)(F)CC1)N1CCC(n2cnc(-c3ccc(F)cc3)c2Cl)CC1 [Example 149] | 862
27 | N#Cc1c(-c2ccc(F)cc2)ncn1C1CCN(C(=O)NC2CCCCC2)CC1 [Example 255] | 759
28 | O=C(NC1CCOCC1)N1CCC(n2cnc(-c3ccc(Cl)cc3F)c2)CC1 [Example 248] | 901
29 | CC(C)(F)C(=O)N[C@H]1CC[C@@H](n2cnc(-c3cccc(OC(F)(F)F)c3)c2C#N)CC1 [Example 345] | 153
30 | O=C(NC1CCC(F)(F)CC1)N1[C@@H]2CC[C@H]1C[C@H](n1cnc(-c3ccc(F)cc3F)c1Cl)C2 [Example 415] | 997
31 | O=C(NC1CCOC1)[C@H]1CC[C@@H](n2cnc(-c3ccc(F)cc3)c2Cl)CC1 (stereo partly shown) [Example 366] | 834
32 | O=C(NC1CCOCC1)N1CCC(n2cnc(-c3ccc(C(F)(F)F)c(F)c3)c2)CC1 [Example 251] | 369
33 | O=C(NC1CCCCC1)N1CCC(n2cnc(-c3cccs3)c2)CC1 [Example 123] | 345
34 | O=C(NC1CCC(F)(F)CC1)N1CCC(n2cnc(-c3ccc4c(c3)CCO4)c2)CC1 [Example 44] | 880
35 | O=C(C1CCC(F)(F)CC1)N1CCCC(n2cnc(-c3ccc(F)cc3)c2)CC1 (stereo not shown) [Example 242] | 297
36 | COC1CCC(NC(=O)N2CCC(n3cnc(-c4ccc(C(F)(F)F)cc4)c3)CC2)CC1 (stereo not shown) [Example 52] | 205
37 | O=C(C1CCC(F)(F)CC1)N1[C@@H]2CC[C@H]1C[C@H](n1cnc(-c3ccccc3F)c1)C2 [Example 448] | 276
38 | O=C(NC1CCC(F)(F)CC1)N1CCC(n2cnc(-c3ccccc3)c2C2CC2)CC1 [Example 113] | 882
39 | CC(C)(F)C(=O)N[C@H]1CC[C@@H](n2cnc(-c3cc(F)ccc3F)c2Cl)CC1 [Example 329] | 643
40 | O=C(NC1CCC(F)(F)CC1)N1[C@@H]2CC[C@H]1C[C@@H](n1cnc(-c3cccc(F)c3F)c1Cl)C2 [Example 398] | 607

Row | SMILES | activity at 10 µM [%]
41 | O=C(NC1CCCCC1)N1[C@@H]2CC[C@H]1C[C@H](n1cnc(-c3ccccc3)c1)C2 [Example 406] | 629
42 | O=C(C1CCC(F)(F)CC1)N1[C@@H]2CC[C@H]1C[C@@H](n1cnc(-c3ccccc3)c1)C2 [Example 428] | 144
43 | Cc1c(-c2ccc(F)cc2)ncn1[C@H]1CC[C@@H](NC(=O)C(C)(C)F)CC1 [Example 351] | 540
44 | O=C(N[C@H]1CC[C@@H](n2cnc(-c3cccc(C(F)(F)F)c3)c2Cl)CC1)C1CCC1 [Example 195] | 142
45 | O=C(C1CCC(F)(F)CC1)N1[C@@H]2CC[C@H]1C[C@H](n1cnc(-c3ccc(F)cc3F)c1)C2 [Example 447] | 268
46 | O=C(C1CCC(F)(F)CC1)N1CCC(n2cnc(-c3ccc(OC(F)F)cc3)c2)CC1 [Example 146] | 572
47 | O=C(N[C@H]1CC[C@@H](n2cnc(-c3ccc(Cl)cc3)c2)CC1)C(F)F [Example 292] | 101
48 | CC(C)(C(=O)N[C@H]1CC[C@@H](n2cnc(-c3ccc(F)cc3)c2)CC1)C(F)(F)F [Example 290] | 194
49 | CC(C)(F)C(=O)N[C@H]1CC[C@@H](n2cnc(-c3ccc(F)cc3F)c2C#N)CC1 [Example 340] | 377
50 | CC(C)(F)C(=O)N[C@H]1CC[C@@H](n2cnc(-c3ccccc3OC(F)(F)F)c2C#N)CC1 [Example 344] | 220
51 | O=C(C1CCOCC1)N1[C@@H]2CC[C@H]1C[C@@H](n1cnc(-c3ccc(F)cc3F)c1Cl)C2 [Example 436] | 300
52 | O=C(Nc1ccccc1F)N1CCC(n2cnc(-c3ccc(F)c(F)c3)c2)CC1 [Example 27] | 139
53 | CC(C)(F)C(=O)N[C@H]1CC[C@@H](n2cnc(-c3ccc(OC(F)(F)F)cc3F)c2C#N)CC1 [Example 347] | 130
54 | O=C(N[C@H]1CC[C@@H](n2cnc(-c3ccccc3)c2Cl)CC1)C1CC(F)(F)C1 [Example 188] | 581
55 | Cc1c(-c2ccc(F)cc2)ncn1[C@H]1CC[C@@H](Nc2cc(C(F)(F)F)ncn2)CC1 [Example 239] | 207
56 | N#Cc1c(-c2ccc(F)cc2F)ncn1[C@H]1C[C@H]2CC[C@@H](C1)N2C(=O)NC1CCC(F)(F)CC1 [Example 402] | 498
57 | O=C(C1CCC(F)(F)CC1)N1[C@@H]2CC[C@H]1C[C@H](n1cnc(-c3cc(F)ccc3F)c1Cl)C2 [Example 459] | 730
58 | O=C(NC1CCCCC1)N1CCCC(n2cnc(-c3ccc(F)cc3)c2Cl)CC1 (stereo not shown) [Example 241] | 314
59 | O=C(C1CCC(F)(F)CC1)N1CCC(n2cnc(-c3ccccc3)c2)CC1 [Example 6, [4-(4-Phenyl-1H-imidazol-1-yl)piperidin-1-yl](4,4-difluorocyclohexyl)methanone] | 292
60 | N#Cc1c(-c2cc(F)cc(F)c2)ncn1[C@H]1CC[C@@H](C(=O)NC2CCOCC2)CC1 [Example 376] | 426
61 | O=C(c1ccc(F)cn1)N1CCC(n2cnc(-c3ccc(F)c(F)c3)c2)CC1 [Example 140] | 127
62 | CC(C)(F)C(=O)N[C@H]1CC[C@@H](n2cnc(-c3ccc(OC(F)(F)F)c(F)c3)c2Cl)CC1 [Example 324] | 860
63 | O=C(NC1CCCCC1)N1CCC(n2cnc(-c3cccc(F)c3)c2Cl)CC1 [Example 84] | 747
64 | O=C(NC1CCCCC1)N1[C@@H]2CC[C@H]1C[C@@H](n1cnc(-c3ccccc3)c1)C2 [Example 383] | 598
65 | O=C(C1CCOCC1)N1CCC(n2cnc(-c3cccc(F)c3)c2Cl)CC1 [Example 150] | 137

same assay, conditions: GH4-C1, 10 μM test compound; ratio of RLU (Max-Min) of test wells to control wells after ACh at EC20; GH4C1 cells expressing human α7 nAChR and aequorin; read-out: α7PAM (%) @10 μM

Row | SMILES | activity at 10 µM [%]
66 | FC(F)(F)c1cc(N[C@H]2CC[C@@H](n3cnc(-c4ccccc4)c3)CC2)ncn1 [Example 235, N-[cis-4-(4-Phenyl-1H-imidazol-1-yl)cyclohexyl]-6-(trifluoromethyl)pyrimidin-4-amine] | 631

same assay, conditions: comparison across Tables 18 to 25

Row | SMILES | PAM activity for α7 nAChR (in words)
67 | COc1cc(-c2cn(C3CCN(C(=O)NC4CCCCC4)CC3)cn2)ccc1Cl [Example 72] | stronger PAM activity than others
